Data taken from the supplement of paper PMC11997997.

Tests used:
[1] = tested on: murine bone marrow-derived macrophages; assay: area under cytotoxicity dose-response curve (AUC (% cytotoxicity x dose, relative)); higher = more cytotoxic; settings: duration: 6 days; dose range: 0.13-80 uM, 8 points
Outline: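 Cytotoxicity is expressed as the area under the dose–response curve from GraphPad Prism version 10. To obtain it, primary murine bone marrow-derived macrophages were incubated for 6 days at 37 °C in 5% CO2 across final concentrations of 80–0.13 μM. Viability came from CellTiter-Glo luminescence, and percent cytotoxicity was normalised to vehicle and positive control wells.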

[2] = tested on: Mycobacterium tuberculosis CDC1551 (intracellular, in murine BMDM); assay: area under intracellular growth-inhibition dose-response curve (AUC (% inhibition x dose, relative)); higher = more potent; settings: duration: 6 days; dose range: 0.13-80 uM, 8 points
Outline: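 In 384-well opaque plates, primary murine bone marrow-derived macrophages were infected with luciferase-expressing M. tuberculosis CDC1551 (multiplicity of infection 1, 1 h) 24 h after seeding, then treated for 6 days across final concentrations of 80–0.13 μM. Growth was measured by Bright-Glo luciferin assay, normalised to a reference drug control and the lowest-concentration wells. The reported value is the area under the growth-inhibition dose–response curve from GraphPad Prism.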

Compound	area under cytotoxicity dose-response curve [1]	area under intracellular growth-inhibition dose-response curve [2]
CN(C)S(=O)(=O)c1ccc(C(=O)OCC(=O)NC(=O)NC2CCCC2)cc1	< 0	165
Cc1ccc2sc(N3CCN(C(=O)c4ccc([N+](=O)[O-])o4)CC3)nc2c1C	11.3	12.2
O=C(c1ccc([N+](=O)[O-])o1)N1CCN(c2nc3c(F)cc(F)cc3s2)CC1	161	20.8
Cc1cc(C)cc(NC(=O)NC2CCCCCCC2)c1	109	198
O=C(N/N=C/c1ccc(OCc2cnc(Cl)s2)cc1)c1ccncc1	48.7	238
CCC(=O)N1CCN(c2ccc(NC(=O)c3ccc([N+](=O)[O-])o3)cc2Cl)CC1	30.3	58.5
O=C(CC1CCCCC1)NCc1ccccn1	3.91	222
COc1ccc(/C=C(\NC(=O)c2ccc(C)cc2)C(=O)Nc2c(C)n(C)n(-c3ccccc3)c2=O)cc1	42	50.7
CNC[C@@H](Cc1ccccc1)NC[C@@H](CC1CCCCC1)NCCCc1ccccc1	61.5	104
CNc1nc(SC)nc2ccccc12	77.9	242
O=C(NCCc1ccc(Cl)cc1)c1ccc(CNc2c(N3CCOCC3)c(=O)c2=O)cc1	< 0	162
Cc1cc(C)n2nc3nc4c(cc3c2n1)CCCC4	< 0	152
CC(=O)OCC1=C(C(=O)O)N2C(=O)C(NC(=O)Cn3nc(C(F)F)c(Cl)c3C)C2SC1 (stereo not given)	2.26	195
CC(C)(C)C(=O)N1CCN(c2ccc(NC(=O)c3ccc([N+](=O)[O-])o3)cc2)CC1	104	105
O=C(NCc1ccccc1)c1cc2ccccc2o1	71.7	197
Cl.c1ccc(-c2nnc(CN3CCCCC3)o2)cc1	36	267
C/C(=N\NC(=O)c1ccncc1)c1ccc(N(C)C)cc1	58.7	182
Cc1cc2oc(=O)cc(-c3ccccc3)c2c(C)c1-c1ccc(C#N)cc1	110	272
COc1ccc2nc(N3CCN(C(=O)c4ccc([N+](=O)[O-])o4)CC3)sc2c1	87	33.1
Cc1ccc(/C=C2\SC(N3CCCC3)=NC2=O)cc1	22.9	220

Compound	area under cytotoxicity dose-response curve [1]	area under intracellular growth-inhibition dose-response curve [2]
Cc1cc(OCCCC(=O)NNC(=O)c2ccncc2)ccc1Cl	25.3	245
Cc1cc(NS(=O)(=O)c2ccc(N)cc2)no1	28.4	57.8
CCOc1ccc(C(=O)Nc2ccc(NC(=S)NC(=O)CC)cc2)cc1Cl	< 0	179
CNC[C@H](Cc1ccccc1)NC[C@@H](Cc1cccc2ccccc12)NCCc1ccc(C)cc1	108	53.8
C/C(=N/NC(=O)c1ccncc1)c1ccc(NC(=O)c2ccccc2)cc1	28.2	240
O=C(CSc1cccc[n+]1[O-])c1cc(Cl)ccc1Cl	47.3	127
N#Cc1ccc(NCC(=O)N2CCN(S(=O)(=O)c3ccccc3)CC2)cc1	< 0	56.7
Br.CCCc1cc(-c2nc(-c3ccc(Cl)cc3)cs2)ccn1	78.3	163
O=C(NCCC1CCCC1)c1cccs1	13.7	200
O=C(NCc1ccccc1Cl)c1ccc(Br)o1	< 0	120
CC(C)[C@@H]1CC[C@@H](C)C[C@H]1OC(=O)C[n+]1cc(-c2ccc(Cl)cc2)n2c1CCCCC2.[Cl-]	101	8.38
CN(Cc1ccccc1)c1ccc2nnc(-c3ccccc3)n2n1	< 0	169
COc1cc2c(cc1OC)CN(C(=O)c1ccc([N+](=O)[O-])o1)CC2	37	101
O=C(/C=C/c1cccs1)N1CCCC1	3.62	168
C[C@@H](CN1CCC[C@H]1CN1C(N)=NC[C@@H]1Cc1ccccc1)N1C[C@@H](Cc2ccccc2)N(CCCC2CCCC2)C1=N	22.1	98
CCCC(=O)NC(=S)Nc1ccc(NC(=O)c2cccs2)cc1	8.63	261
O=C(NC(=S)Nc1ccc(-c2nc3ncccc3o2)cc1)c1ccccc1F	< 0	138
COc1c(N2CCN(C(=S)NC3CC4CCC3C4)C(C)C2)c(F)cc2c(=O)c(C(=O)O)cn(C3CC3)c12 (stereo not given)	8.11	239
COc1cccc2c1C(=O)c1c(O)c3c(c(O)c1C2=O)C[C@](O)(C(C)=O)C[C@H]3O[C@@H]1C[C@@H](N)[C@@H](O)[C@@H](C)O1.Cl	172	44.8
NC(=S)N/N=C/c1ccc(-c2cc(Cl)cc(Cl)c2)o1	41.6	230
